From US8242142B2, “Cyclohexylamines, phenylamines and uses thereof” (The Regents of the University of California, priority 2008, dated 2012)
Read-outs that look alike come from different tables or passages of the source.

Tests used:
[1] = tested on: zebrafish embryos; assay: Zebrafish embryo phenotype analysis (insulin:GFP beta cells, Flk:GFP intersegmental vessels, somites); type: in vivo; details: for off-target toxicity: whole zebrafish embryo assays
Protocol: If SANT74 and SANT75 are specific inhibitors of Hh treating, zebrafish embryos should only produce these well-characterized phenotypes. […] Using these criteria, the specificity of SANT74 and 75 in zebrafish was evaluated.
As a utility of this new inhibitor, timing requirement of Hh for normal somite formation and sprouting of ISV was tested by adding and washing away SANT74 at various developmental stages followed by phenotypic analysis.

[2] = tested on: Gli:GFP expression (Hh signaling); assay: Gli:GFP transgenic zebrafish embryo assay; type: in vivo; details: for concentration at which inhibition of Hh signaling starts to show: zebrafish embryo assays; for concentration that blocks/abolishes Gli:GFP expression: zebrafish embryos
Source text: Generation of Gli:GFP transgenic zebrafish. […] The PCR product digested with Nhe1 and Mlu1 was ligated to GFP and used to generate transgenic zebrafish by microinjection.
Image acquisition and analysis.

[3] = Stability remarks; type: physicochemical; details: in our studies
[4] = tested on: mouse Smo; assay: FRET analysis of Smo conformation in NIH-3T3 cells; type: cell-based; details: for Shh-induced decrease in FRET from mSmo-CFPL2YFPC (FRETL2C) / Shh-induced increase in FRET between mSmo-CFPC and mSmo-YFPC (FRETC): 50 nM, with Shh; for basal FRET of mSmo-CFPN/mSmoYFPN (N-termini): SANT74 or SANT75 50 nM, SAG 100 nM, with or without Shh
Protocol: FRET analysis using confocal microscopy. Effect of SAG, compound 21a (SANT74), and compound 21b (SANT75) on mSmo conformational change was tested by FRET in NIH-3T3 cells that were co-transfected with mouse Smo CFP and Smo YFP reporter constructs. The construction of mSmo-CFP^C/YFP^C, mSmo-CFP^N/YFP^N, and mSmo-CFP^L2YFP^C was performed as described in Zhao Y. Tong C, Jiang J., “Hedgehog regulates smoothened activity by inducing a conformational switch” Nature, 2007; 450:252-8; incorporated herein by reference. NIH-3T3 cells were cultured in DMEM containing 10% bovine calf serum and antibiotics PS at 5% CO2 in a humidified incubator. Transfection was carried out using FuGENE6 (Roche). For FRET analysis of cultured cells, CFP- and YFP-tagged constructs were transfected into NIH-3T3 cells. Transfected cells were treated in the presence of compounds with or without Shh-conditioned medium. Cells were washed with PBS, fixed with 4% formaldehyde for 20 min, and mounted on slides in 80% glycerol. Fluorescence signals were acquired with the 100× objective of a Zeiss LSM510 confocal microscope. CFP was excited by 458 nm light and the emission was collected through BP 480-520 nm filter. YFP was excited by 514 nm light and the emission was collected through BP 535-590 nm filter. CFP signal was obtained once before and once after photobleaching YFP using the full power of the 514 nm laser line for 1-2 min at the top half of each cell, leaving the bottom half unbleached that serves as an internal control. The intensity of CFP was analyzed using the Metamorph software (Universal Imaging Corn). Energy transfer efficiency was calculated using the formula: FRET %=(CFPAP−CFPBP/CFPAP)×100. Each data set was based on 10-15 individual cells. In each cell, four to five regions of interest in the photobleached area were selected for analysis.

[5] = tested on: Hh signal pathway target genes Ptch1 and Gli1 mRNA; assay: Quantitative real-time PCR of Hh target genes in zebrafish embryos; type: in vivo; details: dose dependent; for Ptch1 mRNA level: FIG. 1A; for Gli1 mRNA level: FIG. 1B
Protocol: Quantitative Real-time PCR. The larvae were exposed to different concentrations of small molecules from 2 hpf. Total RNA was extracted from the embryos at 36 hpf using the Trizol kit (Ambion, Austin, Tex.) according to the manufacturer's instructions. Three groups per treatment, each composed of 20 embryos, were assayed using SYBRGreen qPCR kit by real-time PCR (ABI Prism 7700 Sequence Detector System).

[6] = tested on: Shh-LIGHT2 cells; assay: Compound activities in Shh-LIGHT2 cells (Gli-dependent luciferase reporter); type: cell-based; details: Shh Light2, Shh-N-conditioned medium, luciferase reporter activity
Protocol: Shh-LIGHT2 cells (ATCC CRL-2795), a NIH-3T3 cell line stably incorporating Gli-dependent firefly luciferase and thyrmidine kinase promoter-driven Renilla luciferase reporters (Taipale J, Chen J K, Cooper M K, Wang B. Mann R K, Milenkovic L. et al. “Effects of oncogenic mutations in Smoothened and Patched can be reversed by cyclopamine” Nature 2000; 406:1005-9; incorporated herein by reference), were cultured to confluency in 96-well plates using DMEM medium containing 10% calf serum, 100 U/mL penicillin, and 100 μg/mL streptomycin. The cells were then treated with various concentrations of the compounds in DMEM containing 0.5% calf serum and a 1:20 dilution of Shh-N-conditioned medium (Chen J. K., Taipale J. Young K. E., Maiti T Beachy P. A., “Small molecule modulation of Smoothened activity” Proc. Natl. Acad. Sci. U.S.A., 2002; 99:14071-6; incorporated herein by reference). The cells were cultured for an additional 30 h under standard conditions. Firefly and Renilla luciferase activities were measured on a Veritas luminometer (Turner Biosystems) using a dual luciferase kit (Promega) according to the manufacturers' protocols.

[7] = target: T1, mouse Smoothened (Mus musculus, UniProt P56726); assay: Smo-binding assay (BODIPY-cyclopamine competition, HEK 293T cells); details: 5 nM BODIPY-cyclopamine, Smo-overexpressing HEK 293T cells
T1 construct: expressed in transfected cells; host or cells: HEK 293T
T1 sequence (P56726 33-793): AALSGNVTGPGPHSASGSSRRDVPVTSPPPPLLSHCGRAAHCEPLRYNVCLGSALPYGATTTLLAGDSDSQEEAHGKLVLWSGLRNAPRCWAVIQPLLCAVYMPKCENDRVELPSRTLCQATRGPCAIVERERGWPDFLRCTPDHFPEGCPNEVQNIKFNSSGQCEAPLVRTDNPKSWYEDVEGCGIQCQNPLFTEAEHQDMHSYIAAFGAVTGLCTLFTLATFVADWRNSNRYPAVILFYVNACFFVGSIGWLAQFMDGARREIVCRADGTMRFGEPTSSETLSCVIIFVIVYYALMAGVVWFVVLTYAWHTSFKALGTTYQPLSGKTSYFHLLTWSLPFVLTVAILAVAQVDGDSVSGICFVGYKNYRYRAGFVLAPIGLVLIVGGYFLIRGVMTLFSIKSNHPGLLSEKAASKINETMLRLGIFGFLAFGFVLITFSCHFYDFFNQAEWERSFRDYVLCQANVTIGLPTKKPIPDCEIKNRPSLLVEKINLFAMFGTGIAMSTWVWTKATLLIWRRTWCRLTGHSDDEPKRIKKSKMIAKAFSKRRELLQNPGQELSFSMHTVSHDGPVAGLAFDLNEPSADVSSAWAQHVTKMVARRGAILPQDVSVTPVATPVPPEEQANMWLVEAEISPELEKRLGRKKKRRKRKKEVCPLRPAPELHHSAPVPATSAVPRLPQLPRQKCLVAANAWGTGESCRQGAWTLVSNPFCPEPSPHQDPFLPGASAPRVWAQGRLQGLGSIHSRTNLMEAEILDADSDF
Protocol: Smo-binding assay. HEK 293T cells were cultured in DMEM containing 10% fetal bovine serum, 100 U/mL penicillin, and 100 μg/mL streptomycin to 50% confluency in 96-well plates and then transfected with a CMV promoter-driven mouse Smoothened-Myc3 expression construct (100 ng cDNA/well) with Fugene 6 (Roche) according to the manufacturer's protocols. After 12 h the cells were incubated with DMEM containing 0.5% fetal bovine serum, 10 μM Hoechst 33342, 5 nM BODIPY-labeled cyclopamine (Chen J. K., Taipale J, Cooper M. K., Beachy P. A., “Inhibition of Hedgehog signaling by direct binding of cyclopamine to Smoothened” Genes Dev., 2002; 16:2743-8; incorporated herein by reference), and various concentrations of compound 75 for 1 h. The cells were washed two times with PBS buffer and then imaged in DMEM containing 0.5% fetal bovine serum using an ImageXpress 5000A microscopy system (Molecular Devices).

Row | SMILES | off-target toxicity [1] | concentration at which inhibition of Hh signaling starts to show [2] [µM] | concentration that blocks/abolishes Gli:GFP expression [2] [µM] | stability [3] | Shh-induced decrease in FRET from mSmo-CFPL2YFPC (FRETL2C) [4] | Shh-induced increase in FRET between mSmo-CFPC and mSmo-YFPC (FRETC) [4] | basal FRET of mSmo-CFPN/mSmoYFPN (N-termini) [4] | Ptch1 mRNA level [5] | Gli1 mRNA level [5] | further results
1 | C=CCN[C@H]1CC[C@H](N(Cc2cccc(-c3ccncc3)c2)C(=O)c2sc3ccccc3c2Cl)CC1 [SANT74, N-(trans-4-(allylamino)cyclohexyl)-3-chloro-N-(3-(pyridin-4-yl)benzyl)benzo[b]thiophene-2-carboxamide] | no obvious off-target toxicity | 5 | 20 | relatively stable | blocked | blocked | not affected | reduced | reduced | intersegmental blood vessels (ISV) ([1]; 20 μM, Flk:GFP transgenic zebrafish): significantly reduced; insulin:GFP cells ([1]; 20 μM, insulin:GFP transgenic zebrafish): significantly reduced; effect on sprouting of ISV ([1]; added after 24 hpf): no longer had any effect; somite phenotype ([1]; added for 4 hours before 21 hpf): induce U shape somite formation; sprouting of ISV ([1]; added upon fertilization, washed away before 17 hpf): could occur normally; concentration at which embryos no longer developed any extended ISVs ([1]; dose dependent inhibition of angiogenesis): ≥ 20 µM; circulation by microangiographic analysis ([1]; embryos with defective ISVs): lacked circulation
2 | CNC1CCC(N(Cc2cccc(-c3ccncc3)c2)C(=O)c2sc3ccccc3c2Cl)CC1 (stereo not drawn) [SAG, reference compound] |  |  |  |  |  |  | not affected |  |  | effect on Gli:GFP expression ([2]; same condition as SANT19, approximately 80 μM): no effect; FRETC ([4]; 100 nM, independent of Shh): increase; FRETL2C ([4]; 100 nM, independent of Shh): decrease
3 | CC1=C2C[C@H]3[C@@H](CC=C4C[C@@H](O)CC[C@@]43C)[C@@H]2CC[C@]12O[C@@H]1C[C@H](C)CN[C@H]1[C@H]2C [cyclopamine, reference compound] |  |  |  |  |  |  |  |  |  | IC50 [6]: 300 nM; Gli:GFP expression upon treatment ([2]; transgenic embryos, concentration not given): abolished
4 | CCCN[C@H]1CC[C@H](N(Cc2cccc(-c3ccncc3)c2)C(=O)c2sc3ccccc3c2Cl)CC1 [SANT75, 3-chloro-N-(trans-4-(propylamino)cyclohexyl)-N-(3-(pyridin-4-yl)benzyl)benzo[b]thiophene-2-carboxamide] | no obvious off-target toxicity | 5 | 20 | relatively stable | blocked | blocked | not affected | reduced | reduced | IC50 ([6]; read-out: IC50): 20 nM; BODIPY-cyclopamine/Smo binding [7]: effectively abrogate
